“Also recorded” adds a separate entry of the source. Like-named read-outs stand apart in the source and are kept apart here. Ends that are not written are not given here. Peptide text beside a SMILES is read from it.
Key:
Type in all cases: cell-based
[1] = tested on: Pseudomonas aeruginosa (ATCC BAA-2110); test: Growth of MDR bacteria monitored by OD600 under peptide, antibiotic or co-treatment; conditions: AMP alone 128 μg/ml; 17-20 h; FIG. 3B
[2] = tested on: Pseudomonas aeruginosa (ATCC BAA-2110); test: as above; conditions: FIG. 3B; for bacterial growth (OD600), stand-alone treatment / bacterial growth (OD600), combination: 17-20 h; for bacterial growth (OD600), combination: OMN6 32 μg/ml together with AMP 64 μg/ml, simultaneously
Method: FIG. 3B presents: Pseudomonas aeruginosa (ATCC BAA-2110), a Multi-Drug Resistant (MDR) strain of bacteria were cultured in the presence of either OMN6 or AMP. The bacteria were introduced into solutions of OMN6 (32 μg/ml) and AMP (64 μg/ml) at concentrations that were previously shown to be non-effective when added alone. […] The bacteria were then cultured in the presence of a co-treatment with a combination of OMN6 and AMP, and administered simultaneously, in the same non-effective concentrations described above.
(§1) The bacteria were incubated for 17-20 hours and the growth of the bacteria was continuously monitored via spectrophotometry at 600 nm (OD600). As bacterial growth progresses, OD600 values rise, and where the growth is inhibited OD600 values remain constant.

[3] = tested on: Salmonella serotype Typhimurium (ATCC 700408); test: microbe, parasite or virus in culture; conditions: for bacterial growth (OD600), stand-alone treatment / bacterial growth (OD600), combination: 17-20 h; for bacterial growth (OD600), combination: simultaneously; for MIC: Salmonella
Method: FIG. 1 presents: Salmonella serotype Typhimurium (ATCC 700408), a Multi-Drug Resistant (MDR) strain of bacteria were cultured in the presence of either OMN6 or Kanamycin KAN. […] The bacteria were incubated for 17-20 hours and the growth of the bacteria was continuously monitored via spectrophotometry at 600 nm (OD600). As bacterial growth progresses, OD600 values rise, and where the growth is inhibited OD600 values remain constant.
as §1
FIG. 3A presents: Salmonella serotype Typhimurium (ATCC 700408), a Multi-Drug Resistant (MDR) strain of bacteria were cultured in the presence of OMN6 or AMP.

[4] = tested on: Salmonella serotype Typhimurium (ATCC 700408); test: microbe, parasite or virus in culture; conditions: for MIC: Salmonella; for bacterial growth (OD600), combination: simultaneously; for bacterial growth (OD600), combination / bacterial growth (OD600), stand-alone treatment: 17-20 h
[5] = OMN6 32 μg/ml together with AMP 128 μg/ml, FIG. 3A

Compound: CC1(C)S[C@@H]2[C@H](NC(=O)[C@H](N)c3ccccc3)C(=O)N2[C@H]1C(=O)O [AMP, Ampicillin, reference compound]
- bacterial growth (OD600), stand-alone treatment [1]: did not inhibit bacterial growth effectively
- bacterial growth (OD600), stand-alone treatment ([2]; AMP alone 64 μg/ml): did not inhibit bacterial growth and did not lead to bacterial death
- bacterial growth (OD600), combination [2]: complete and long-lasting antimicrobial effect; also recorded: powerful antimicrobial effect
- MIC ([2]; Pseudomonas aeruginosa, ATCCBAA2110, in co-treatment with OMN6 32 μg/ml, read-out: Minimal Inhibitory Concentration (MIC) of co-treatment, AMP part): 64 µg/mL
- bacterial growth (OD600), stand-alone treatment ([3]; AMP alone 128 μg/ml, FIG. 3A): did not inhibit bacterial growth and did not lead to bacterial death; also recorded: did not inhibit bacterial growth effectively
- bacterial growth (OD600), combination [3, 5]: complete and long-lasting antimicrobial effect; also recorded: powerful antimicrobial effect
- MIC ([3]; read-out: Minimal Inhibitory Concentration (MIC) of co-treatment, AMP part): 128 µg/mL

Compound: C[C@@H](O)[C@H]1C(=O)N2C(C(=O)O)=C(SCCN=CN)C[C@H]12 [IPM, Imipenem, reference compound]
- MIC ([4]; read-out: Minimal Inhibitory Concentration (MIC) of co-treatment, IPM part): 32 µg/mL

Compound: NC[C@H]1O[C@H](O[C@H]2[C@H](O)[C@@H](O[C@H]3O[C@H](CO)[C@@H](O)[C@H](N)[C@H]3O)[C@H](N)C[C@@H]2N)[C@H](O)[C@@H](O)[C@@H]1O [KAN, Kanamycin, reference compound]
- MIC ([3]; in co-treatment with OMN6 217 μg/ml, FIG. 1, read-out: Minimal Inhibitory Concentration (MIC) of co-treatment, KAN part): 3.75 µg/mL

Compound: CC[C@H](C)[C@H](NC(=O)CNC(=O)[C@H](CCC(=O)O)NC(=O)[C@H](CO)NC(=O)[C@@H](NC(=O)[C@H](CCCNC(=N)N)NC(=O)[C@H](CCCCN)NC(=O)[C@H](CCCCN)NC(=O)[C@H](C)NC(=O)[C@H](CO)NC(=O)[C@H](CC(N)=O)NC(=O)[C@H](CCC(=O)O)NC(=O)[C@H](CC(C)C)NC(=O)[C@H](CCCCN)NC(=O)[C@H](CCCCN)NC(=O)[C@H](C)NC(=O)[C@@H](NC(=O)[C@H](CCCCN)NC(=O)[C@H](CO)NC(=O)[C@H](CC(C)C)NC(=O)[C@H](Cc1c[nH]c2ccccc12)NC(=O)[C@H](CO)NC(=O)[C@H](CS)NC(=O)[C@@H](N)CCSC)[C@@H](C)O)[C@@H](C)CC)C(=O)N[C@@H](C)C(=O)N[C@H](C(=O)N[C@@H](C)C(=O)N[C@H](C(=O)N[C@@H](CCC(N)=O)C(=O)NCC(=O)NCC(=O)N1CCC[C@H]1C(=O)N[C@@H](CCCNC(=N)N)C(=O)N[C@@H](CS)C(=O)O)[C@@H](C)CC)[C@@H](C)CC [OMN11] (H-MCSWLSKTAKKLENSAKKRISEGIAIAIQGGPRC-OH; N-terminus and C-terminus assumed)
- bacterial growth (OD600), combination ([4]; OMN11 304 μg/ml together with IPM 32 μg/ml, FIG. 2): complete and long-lasting antimicrobial effect; also recorded: powerful antimicrobial effect
- bacterial growth (OD600), stand-alone treatment ([4]; OMN11 alone 304 μg/ml, FIG. 2): did not inhibit bacterial growth and did not lead to bacterial death; also recorded: did not inhibit bacterial growth effectively

Compound: CN(C)[C@@H]1C(O)=C(C(N)=O)C(=O)[C@@]2(O)C(O)=C3C(=O)c4c(O)cccc4[C@@](C)(O)[C@H]3C[C@@H]12 [TET, Tetracycline, reference compound]
- MIC ([4]; in co-treatment with OMN6 32 μg/ml, FIG. 4, read-out: Minimal Inhibitory Concentration (MIC) of co-treatment, TET part): 162 µg/mL

Compound: OMN6: modified H. cecropia Cecropin A peptide, MCKWKLFKKIEKVGQNIRDGIIKAGPAVAVVGQATQIAKC (ends and bridges not checked; cysteine pairing not given here)
- bacterial growth (OD600), combination [2]: complete and long-lasting antimicrobial effect; also recorded: powerful antimicrobial effect
- bacterial growth (OD600), stand-alone treatment ([2]; OMN6 alone 32 μg/ml): did not inhibit bacterial growth and did not lead to bacterial death; also recorded: did not inhibit bacterial growth effectively
- Minimal Inhibitory Concentration (MIC) of co-treatment, OMN6 part ([2]; in co-treatment with AMP 64 μg/ml): 32 µg/mL
- bacterial growth (OD600), combination [3, 5]: complete and long-lasting antimicrobial effect; also recorded: powerful antimicrobial effect
- bacterial growth (OD600), combination ([3]; OMN6 217 μg/ml together with KAN 3.75 μg/ml, FIG. 1): complete and long-lasting antimicrobial effect; also recorded: powerful antimicrobial effect
- bacterial growth (OD600), stand-alone treatment ([3]; OMN6 alone 32 μg/ml, FIG. 3A): did not inhibit bacterial growth and did not lead to bacterial death; also recorded: did not inhibit bacterial growth effectively
- bacterial growth (OD600), stand-alone treatment ([3]; OMN6 alone 32 μg/ml, FIG. 4): did not inhibit bacterial growth and did not lead to bacterial death; also recorded: did not inhibit bacterial growth effectively
- Minimal Inhibitory Concentration (MIC) of co-treatment, OMN6 part ([3]; in co-treatment with AMP 128 μg/ml, FIG. 3A): 32 µg/mL
- Minimal Inhibitory Concentration (MIC) of co-treatment, OMN6 part ([3]; in co-treatment with KAN 3.75 μg/ml, FIG. 1): 217 µg/mL
- bacterial growth (OD600), combination ([4]; OMN6 32 μg/ml together with TET 16 μg/ml, FIG. 4): complete and long-lasting antimicrobial effect; also recorded: powerful antimicrobial effect
- bacterial growth (OD600), stand-alone treatment ([4]; OMN6 alone 217 μg/ml, FIG. 1): did not inhibit bacterial growth and did not lead to bacterial death; also recorded: did not inhibit bacterial growth effectively
